pIC50: −log10 of the molar value. Where a name gives a salt, the structure may show the parent alone.
Key:
[1] = test system: Mast cells; assay: Effects on histamine release from mast cells induced by compound 48/80; format: cell-based; settings: Mast cell; 10 μg/ml test compound; compound 48/80 induced; read-out: Inhibition of histamine release
Procedure: After incubation for 20 minutes at 37° C., the suspension was cooled to 4° C., and released histamine was determined as described by Shore et al. All samples examined were recognized to cause no disturbance in the fluorometric assay.

[2] = biological target: Pancreas kallikrein (Sus scrofa, UniProt P00752); assay: Inhibition of pancreas kallikrein (BAEe hydrolysis); format: biochemical; settings: BAEe substrate, 37° C., 30 minutes, pH 8.0; read-out: Concentration for 50% inhibition (IC50), pancreas kallikrein
Procedure: (§1) Inhibitory effects on the TAMe(N^α -tosyl-L-arginine methyl ester) hydrolytic activity of trypsin, plasmin, plasma kallikrein and thrombin were estimated by Hesterin's method modified by Roberts. Inhibition of the BAEe(N^α -benzoyl-L-arginine ethyl ester) hydrolytic activity of pancreas kallikrein was determined by Hesterin's method after incubation at 37° C. for 30 minutes in a 0.1M borate buffer, pH 8.0. Inhibitory effects on urokinase were determined by the chromotropic acid method after incubation of 60 iu of urokinase with 10 mM AGLMe(acetylglycyl-L-lysine methyl ester) at 37° C. for 30 minutes in a 0.06M phosphate buffer, pH 7.5, containing 0.09M NaCl. Inhibition of chymotrypsin was determined by Hesterin's method after incubation with 15 mM ATE (N^α -acetyl-L-tyrosine ethyl ester) for 30 minutes at 37° C. in a 0.1M borate buffer, pH 8.0.

[3] = biological target: Thrombin (Homo sapiens, UniProt P00734); assay: Inhibition of thrombin (TAMe hydrolysis); format: biochemical; settings: TAMe substrate; read-out: Concentration for 50% inhibition (IC50), thrombin
[4] = biological target: T1, Trypsin (Bos taurus, UniProt P00760); assay: Inhibition of trypsin (TAMe hydrolysis); format: biochemical; settings: TAMe substrate; read-out: Concentration for 50% inhibition (IC50), trypsin
T1 sequence (P00760 24-246): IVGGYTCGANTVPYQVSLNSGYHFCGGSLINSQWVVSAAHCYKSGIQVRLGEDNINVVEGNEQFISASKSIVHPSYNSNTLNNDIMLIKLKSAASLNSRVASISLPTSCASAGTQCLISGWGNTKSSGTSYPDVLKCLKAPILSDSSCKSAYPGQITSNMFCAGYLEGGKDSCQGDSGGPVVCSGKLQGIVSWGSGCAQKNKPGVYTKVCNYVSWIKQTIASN
Procedure: as §1

[5] = test system: guinea pigs ilea; assay: Anti-histamine action; set-up: species or system guinea pig; settings: Cavia porcellus, read-out: Anti-histamine effect inhibition of contraction; for inhibition at 25 µg/mL: final conc. 25 μg/ml; for inhibition at 50 µg/mL: final conc. 50 μg/ml
Source text: (§2) Anti-acetylcholine and anti-histamine effects of the present compounds were examined using guinea pigs ilea by the usual method.

[6] = test system: ileum of each sensitized guinea pig; assay: Schultz-Dale reaction; settings: Cavia porcellus, read-out: Inhibition of contraction (Schultz-Dale reaction); for inhibition at 25 µg/mL: final conc. 25 μg/ml; for inhibition at 50 µg/mL: final conc. 50 μg/ml
Procedure: Male guinea pigs were sensitized with bovine serum albumin by Freund's complete adjuvant method. After a lapse of 10 days, the animals were sensitized once more as described above. After two more weeks, an ileum of each sensitized guinea pig was removed and used for experiment. The ileum was equipped in a magnus tube containing each test sample, and 500 μg of bovine serum albumin was added. The contraction of the ileum was determined.

[7] = test system: guinea pigs ilea; assay: Anti-acetylcholine action; set-up: species or system guinea pig; settings: Cavia porcellus, read-out: Anti-acetylcholine effect inhibition of contraction; for inhibition at 25 µg/mL: final conc. 25 μg/ml; for inhibition at 50 µg/mL: final conc. 50 μg/ml
Source text: as §2

[8] = biological target: Plasmin (Homo sapiens, UniProt P00747); assay: Inhibition of plasmin (TAMe hydrolysis); format: biochemical; settings: TAMe substrate; read-out: Concentration for 50% inhibition (IC50), plasmin
Procedure: as §1

[9] = biological target: Urokinase (Homo sapiens, UniProt P00749); assay: Inhibition of urokinase (AGLMe, chromotropic acid method); format: biochemical; settings: 60 iu urokinase, 10 mM AGLMe, 37° C., 30 minutes, pH 7.5; read-out: Concentration for 50% inhibition (IC50), urokinase
Procedure: as §1

[10] = biological target: Chymotrypsin (Bos taurus, UniProt P00766); assay: Inhibition of chymotrypsin (ATE hydrolysis); format: biochemical; settings: 15 mM ATE, 30 minutes, 37° C., pH 8.0; read-out: Concentration for 50% inhibition (IC50), chymotrypsin
Procedure: as §1

[11] = test system: Mast cells; settings: Life Sciences 10, 805-812 (1971); Internal Medicine 42(6), 933 (1978); cited from earlier work
[12] = biological target: Plasma kallikrein (Homo sapiens, UniProt P03952); assay: Inhibition of plasma kallikrein (TAMe hydrolysis); format: biochemical; settings: TAMe substrate; read-out: Concentration for 50% inhibition (IC50), plasma kallikrein
Procedure: as §1

Plasmin, sequence (P00747 97-580 limits assumed, species assumed): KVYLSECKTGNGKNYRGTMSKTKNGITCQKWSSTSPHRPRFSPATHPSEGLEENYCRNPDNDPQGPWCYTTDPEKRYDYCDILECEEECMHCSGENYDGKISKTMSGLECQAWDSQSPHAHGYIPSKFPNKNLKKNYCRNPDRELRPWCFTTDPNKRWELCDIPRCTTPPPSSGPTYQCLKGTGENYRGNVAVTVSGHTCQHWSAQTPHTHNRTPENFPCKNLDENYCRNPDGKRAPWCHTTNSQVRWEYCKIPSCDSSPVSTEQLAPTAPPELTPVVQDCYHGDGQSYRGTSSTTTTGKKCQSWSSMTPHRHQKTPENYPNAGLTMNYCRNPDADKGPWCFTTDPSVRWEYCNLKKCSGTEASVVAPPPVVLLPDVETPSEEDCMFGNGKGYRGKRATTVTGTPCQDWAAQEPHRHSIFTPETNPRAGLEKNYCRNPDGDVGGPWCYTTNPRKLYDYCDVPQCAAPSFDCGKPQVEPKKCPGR
Pancreas kallikrein, sequence (P00752 15-246 limits assumed): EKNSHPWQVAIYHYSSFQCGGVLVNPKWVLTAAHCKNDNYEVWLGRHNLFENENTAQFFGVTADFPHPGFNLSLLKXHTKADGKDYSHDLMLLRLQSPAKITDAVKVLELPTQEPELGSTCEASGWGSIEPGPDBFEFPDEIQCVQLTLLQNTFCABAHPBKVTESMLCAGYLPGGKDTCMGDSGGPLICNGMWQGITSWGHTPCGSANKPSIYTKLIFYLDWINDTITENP
Plasma kallikrein, sequence (P03952 20-390 limits assumed, species assumed): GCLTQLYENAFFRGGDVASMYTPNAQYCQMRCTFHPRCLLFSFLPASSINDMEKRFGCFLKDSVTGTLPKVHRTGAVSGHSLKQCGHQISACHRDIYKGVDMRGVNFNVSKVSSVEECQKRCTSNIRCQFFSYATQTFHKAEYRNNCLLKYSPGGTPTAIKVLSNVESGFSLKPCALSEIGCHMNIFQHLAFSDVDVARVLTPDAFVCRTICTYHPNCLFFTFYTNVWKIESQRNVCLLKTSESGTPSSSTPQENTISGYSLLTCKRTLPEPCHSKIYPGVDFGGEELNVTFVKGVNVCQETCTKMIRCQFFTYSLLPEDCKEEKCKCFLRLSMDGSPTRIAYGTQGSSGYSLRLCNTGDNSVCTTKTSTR

| pIC50 [2] | pIC50 [3] | pIC50 [9] | pIC50 [10] | Structure (SMILES) | inhibition at 10 µg/mL [1] [%] | inhibition at 25 µg/mL [5] [%] | inhibition at 50 µg/mL [5] [%] | other results |
| --- | --- | --- | --- | --- | --- | --- | --- | --- |
| 3.82 | 3.74 |  |  | N=C(N)NC[C@H]1CC[C@H](C(=O)Oc2ccc(Br)cc2)CC1 [Compound 6, 4'-Bromophenyl trans-4-guanidinomethylcyclohexanecarboxylate hydrochloride] |  |  |  | pIC50 [4]: 3.59 |
| 3.49 |  | 3.59 | 4.15 | Cc1ccc(OC(=O)[C@H]2CC[C@H](CNC(=N)N)CC2)cc1 [Compound 3, 4'-Methylphenyl trans-4-guanidinomethylcyclohexanecarboxylate hydrochloride] |  | 98 | 100 | inhibition at 25 µg/mL [6]: 83.3%; inhibition at 50 µg/mL [6]: 100%; inhibition at 25 µg/mL [7]: 100%; inhibition at 50 µg/mL [7]: 100% |
| 4.52 |  | 3.96 |  | N#Cc1ccccc1OC(=O)[C@H]1CC[C@H](CNC(=N)N)CC1 [Compound 21, 2'-Cyanophenyl trans-4-guanidinomethylcyclohexanecarboxylate hydrochloride] |  |  |  | pIC50 [8]: 3.70 |
| 4.05 | 3.80 | 3.80 | 4.92 | N=C(N)NC[C@H]1CC[C@H](C(=O)Oc2ccccc2Cl)CC1 [Compound 5, 2'-Chlorophenyl trans-4-guanidinomethylcyclohexanecarboxylate hydrochloride] |  |  |  | pIC50 [4]: 3.41; pIC50 [12]: 3.52 |
| 4.60 | 4.02 | 4.51 | 5.55 | N=C(N)NC[C@H]1CC[C@H](C(=O)Oc2ccc([N+](=O)[O-])cc2)CC1 [Compound 15, 4'-Nitrophenyl trans-4-guanidinomethylcyclohexanecarboxylate hydrochloride] |  |  |  | pIC50 [4]: 4.05; pIC50 [12]: 3.52 |

Second part, the molecule before the results:

| Structure (SMILES) | pIC50 [2] | pIC50 [3] | pIC50 [9] | pIC50 [10] | inhibition at 10 µg/mL [1] [%] | inhibition at 25 µg/mL [5] [%] | inhibition at 50 µg/mL [5] [%] | other results |
| --- | --- | --- | --- | --- | --- | --- | --- | --- |
| N=C(N)NC[C@H]1CC[C@H](C(=O)Oc2ccc3c(c2)CCC3)CC1 [Compound 23, 5'-Indanyl trans-4-guanidinomethylcyclohexanecarboxylate hydrochloride] |  |  |  |  | 12.7 |  |  |  |
| N=C(N)NC[C@H]1CC[C@H](C(=O)Oc2ccc(Cl)c3ccccc23)CC1 [Compound 28, 4'-Chloronaphthyl trans-4-guanidinomethylcyclohexanecarboxylate hydrochloride] |  |  |  |  | 60.9 | 99.7 | 100 | inhibition at 25 µg/mL [6]: 80%; inhibition at 50 µg/mL [6]: 100%; inhibition at 25 µg/mL [7]: 68%; inhibition at 50 µg/mL [7]: 76% |
| Cc1ccc(C(C)C)c(OC(=O)[C@H]2CC[C@H](CNC(=N)N)CC2)c1 [Compound 13, 2'-iso-Propyl-5'-methylphenyl trans-4-guanidinomethylcyclohexanecarboxylatehydrochloride] | 3.40 |  | 4.52 |  |  |  |  | pIC50 [8]: 3.40 |
| N=C(N)NC[C@H]1CC[C@H](C(=O)Oc2ccc3ccccc3c2[N+](=O)[O-])CC1 [Compound 29, 2'-(1'-Nitro)naphthyl trans-4-guanidinomethylcyclohexanecarboxylate hydrochloride] |  |  |  |  | 20.6 |  |  | inhibition at 25 µg/mL [7]: 52%; inhibition at 50 µg/mL [7]: 80% |
| N=C(N)NC[C@H]1CC[C@H](C(=O)Oc2ccc(Cl)cc2)CC1 [Compound 10, 4'-Chlorophenyl trans-4-guanidinomethylcyclohexanecarboxylate hydrochloride] |  |  |  |  |  | 100 | 100 | inhibition at 25 µg/mL [6]: 100%; inhibition at 50 µg/mL [6]: 100%; inhibition at 25 µg/mL [7]: 89.8%; inhibition at 50 µg/mL [7]: 100% |
| N=C(N)NC[C@H]1CC[C@H](C(=O)Oc2ccc(I)cc2)CC1 [Compound 7, 4'-Iodophenyl trans-4-guanidinomethylcyclohexanecarboxylate hydrochloride] |  |  |  |  | 18.4 |  |  |  |
| N=C(N)NC[C@H]1CC[C@H](C(=O)Oc2ccccc2)CC1 [Compound A, Phenyl trans4-guanidinomethylcyclohexanecarboxylate hydrochloride, reference compound] |  |  |  |  | 5 | 100 | 100 | inhibition at 25 µg/mL [6]: 0%; inhibition at 50 µg/mL [6]: 0% |
| Cc1cc(OC(=O)[C@H]2CC[C@H](CNC(=N)N)CC2)c(C(C)C)cc1Cl [Compound 14, 2'-iso-Propyl-4'-chloro-5'-methylphenyl trans-4-guanidinomethylcyclohexanecarboxylate hydrochloride] | 3.89 | 3.62 |  | 4.00 | 38.8 |  |  | pIC50 [8]: 3.40; pIC50 [4]: 3.72 |
| O=C(O)c1cc(=O)c2c(OCC(O)COc3cccc4oc(C(=O)O)cc(=O)c34)cccc2o1 [DSCG, Disodium cromoglycate, reference compound] |  |  |  |  | 10 | 0 | 0 | inhibitory effects on histamine release from mast cells [11]: has inhibitory effects on histamine release from mast cells |
| N=C(N)NC[C@H]1CC[C@H](C(=O)Oc2ccc3ccc(=O)oc3c2)CC1 [Compound 24, 7'-(2'-Oxochromenyl)trans-4-guanidinomethylcyclohexanecarboxylate hydrochloride] | 4.70 | 3.64 | 4.30 | 5.22 |  |  |  |  |

Source: patent US4465851A, “Guanidinocyclohexanecarboxylic acid derivatives” (Nippon Chemiphar Co., Ltd., priority 1981, dated 1984)
